Measurements published in ChEMBL document CHEMBL5154921, “Discovery and Characterization of the First Nonpeptide Antagonists for the Relaxin-3/RXFP3 System” (J Med Chem, 2022).
pIC50: −log10 of the molar value.

Key:
[1] = biological target: Sigma non-opioid intracellular receptor 1 (Homo sapiens) (UniProt Q99720); assay: Inhibition of sigma1 receptor (unknown origin) at 10 uM relative to control
[2] = biological target: Alpha-2B adrenergic receptor (Homo sapiens) (UniProt P18089); assay: Inhibition of adrenergic alpha-2B receptor (unknown origin) at 10 uM relative to control
[3] = Kinetic aqueous solubility of the compound in PBS at pH 7.4 measured after 2 hrs by LC/MS-MS method; type: physicochemical; settings: buffer, pH 7.4, 2 h
[4] = biological target: Alpha-1B adrenergic receptor (Homo sapiens) (UniProt P35368); assay: Inhibition of adrenergic alpha-1B receptor (unknown origin) at 10 uM relative to control
Alpha-1B adrenergic receptor (Homo sapiens), sequence (P35368 whole entry): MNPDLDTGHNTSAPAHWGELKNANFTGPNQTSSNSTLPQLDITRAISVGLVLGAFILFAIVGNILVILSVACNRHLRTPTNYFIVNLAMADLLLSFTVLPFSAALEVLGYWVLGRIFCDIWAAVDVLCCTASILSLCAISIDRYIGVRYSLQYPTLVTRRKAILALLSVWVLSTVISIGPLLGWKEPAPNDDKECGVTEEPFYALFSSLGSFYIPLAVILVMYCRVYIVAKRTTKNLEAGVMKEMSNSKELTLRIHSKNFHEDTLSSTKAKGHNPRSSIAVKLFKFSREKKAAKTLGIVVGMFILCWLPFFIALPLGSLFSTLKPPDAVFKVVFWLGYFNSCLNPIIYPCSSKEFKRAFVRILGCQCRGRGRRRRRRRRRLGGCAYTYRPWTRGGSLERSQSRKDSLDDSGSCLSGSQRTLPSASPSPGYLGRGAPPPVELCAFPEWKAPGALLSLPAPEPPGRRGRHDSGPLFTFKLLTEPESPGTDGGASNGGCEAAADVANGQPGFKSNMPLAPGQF

[5] = biological target: 5-hydroxytryptamine receptor 5A (Homo sapiens) (UniProt P47898); assay: Inhibition of serotonin 5-HT5A receptor (unknown origin) at 10 uM relative to control
5-hydroxytryptamine receptor 5A (Homo sapiens), sequence (P47898 whole entry): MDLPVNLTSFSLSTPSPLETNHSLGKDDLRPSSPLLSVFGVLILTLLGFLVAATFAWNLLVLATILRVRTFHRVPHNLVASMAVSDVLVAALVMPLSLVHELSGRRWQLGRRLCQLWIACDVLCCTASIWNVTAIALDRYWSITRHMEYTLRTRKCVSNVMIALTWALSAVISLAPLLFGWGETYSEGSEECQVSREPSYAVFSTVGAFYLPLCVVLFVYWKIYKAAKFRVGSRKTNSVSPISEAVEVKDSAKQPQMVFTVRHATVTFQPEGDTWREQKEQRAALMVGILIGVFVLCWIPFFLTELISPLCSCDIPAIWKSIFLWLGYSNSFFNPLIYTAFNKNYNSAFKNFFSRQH

[6] = biological target: D(2) dopamine receptor (Homo sapiens) (UniProt P14416); assay: Inhibition of dopamine D2 receptor (unknown origin) at 10 uM relative to control
[7] = biological target: 5-hydroxytryptamine receptor 1B (Homo sapiens) (UniProt P28222); assay: Inhibition of serotonin 5-HT1B receptor (unknown origin) at 10 uM relative to control
5-hydroxytryptamine receptor 1B (Homo sapiens), sequence (P28222 whole entry): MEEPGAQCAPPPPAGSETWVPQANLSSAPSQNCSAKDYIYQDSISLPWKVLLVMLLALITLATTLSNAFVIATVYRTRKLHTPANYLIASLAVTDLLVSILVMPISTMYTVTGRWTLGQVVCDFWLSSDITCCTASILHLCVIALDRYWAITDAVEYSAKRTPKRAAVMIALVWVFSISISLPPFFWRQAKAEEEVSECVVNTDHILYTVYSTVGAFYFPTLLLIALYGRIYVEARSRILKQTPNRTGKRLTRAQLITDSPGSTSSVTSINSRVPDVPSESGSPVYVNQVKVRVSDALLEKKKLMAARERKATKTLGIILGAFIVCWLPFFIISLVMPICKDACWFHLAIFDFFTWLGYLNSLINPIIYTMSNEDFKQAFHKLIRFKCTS

[8] = Efflux ratio of apparent permeability across basolateral to apical side over apical to basolateral side in MDCK-MDR1 cells measured upto 90 min by LC-MS/MS analysis; type: ADME, cell-based, Canis lupus familiaris; settings: dog, mdck-mdr1, 1.5 h
[9] = biological target: D(3) dopamine receptor (Homo sapiens) (UniProt P35462); assay: Inhibition of dopamine D3 receptor (unknown origin) at 10 uM relative to control
D(3) dopamine receptor (Homo sapiens), sequence (P35462 whole entry): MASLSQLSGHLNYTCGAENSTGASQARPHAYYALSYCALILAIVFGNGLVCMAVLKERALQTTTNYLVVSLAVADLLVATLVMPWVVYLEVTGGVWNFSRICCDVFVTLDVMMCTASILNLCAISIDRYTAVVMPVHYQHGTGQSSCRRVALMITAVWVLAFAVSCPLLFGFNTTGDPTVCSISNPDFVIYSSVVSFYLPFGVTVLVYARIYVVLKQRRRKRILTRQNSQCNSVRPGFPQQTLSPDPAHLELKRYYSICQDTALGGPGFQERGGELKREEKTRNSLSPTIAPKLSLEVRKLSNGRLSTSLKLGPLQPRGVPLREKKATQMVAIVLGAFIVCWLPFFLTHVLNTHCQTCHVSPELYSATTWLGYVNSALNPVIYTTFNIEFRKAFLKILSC

[10] = biological target: Mu-type opioid receptor (Homo sapiens) (UniProt P35372); assay: Inhibition of opioid u receptor (unknown origin) at 10 uM relative to control
[11] = biological target: Muscarinic acetylcholine receptor M3 (Homo sapiens) (UniProt P20309); assay: Inhibition of muscarinic M3 receptor (unknown origin) at 10 uM relative to control
Muscarinic acetylcholine receptor M3 (Homo sapiens), sequence (P20309 whole entry, looked up): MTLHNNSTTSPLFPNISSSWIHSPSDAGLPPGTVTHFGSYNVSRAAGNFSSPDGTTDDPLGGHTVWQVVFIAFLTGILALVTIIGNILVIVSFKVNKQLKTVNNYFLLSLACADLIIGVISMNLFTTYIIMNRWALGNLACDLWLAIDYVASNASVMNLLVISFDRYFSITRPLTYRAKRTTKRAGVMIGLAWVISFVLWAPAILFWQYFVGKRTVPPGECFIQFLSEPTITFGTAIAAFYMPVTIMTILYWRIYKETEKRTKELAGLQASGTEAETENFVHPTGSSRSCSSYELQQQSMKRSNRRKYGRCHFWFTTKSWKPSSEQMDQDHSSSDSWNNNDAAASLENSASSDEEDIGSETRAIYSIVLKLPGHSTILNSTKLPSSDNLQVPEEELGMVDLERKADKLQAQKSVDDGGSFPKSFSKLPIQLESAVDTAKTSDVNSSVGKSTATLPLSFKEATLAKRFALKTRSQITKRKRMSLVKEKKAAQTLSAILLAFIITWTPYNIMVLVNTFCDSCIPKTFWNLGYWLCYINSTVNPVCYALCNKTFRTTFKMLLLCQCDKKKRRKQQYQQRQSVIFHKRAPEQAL

[12] = biological target: 5-hydroxytryptamine receptor 1A (Homo sapiens) (UniProt P08908); assay: Inhibition of serotonin 5-HT1A receptor (unknown origin) at 10 uM relative to control
5-hydroxytryptamine receptor 1A (Homo sapiens), sequence (P08908 whole entry): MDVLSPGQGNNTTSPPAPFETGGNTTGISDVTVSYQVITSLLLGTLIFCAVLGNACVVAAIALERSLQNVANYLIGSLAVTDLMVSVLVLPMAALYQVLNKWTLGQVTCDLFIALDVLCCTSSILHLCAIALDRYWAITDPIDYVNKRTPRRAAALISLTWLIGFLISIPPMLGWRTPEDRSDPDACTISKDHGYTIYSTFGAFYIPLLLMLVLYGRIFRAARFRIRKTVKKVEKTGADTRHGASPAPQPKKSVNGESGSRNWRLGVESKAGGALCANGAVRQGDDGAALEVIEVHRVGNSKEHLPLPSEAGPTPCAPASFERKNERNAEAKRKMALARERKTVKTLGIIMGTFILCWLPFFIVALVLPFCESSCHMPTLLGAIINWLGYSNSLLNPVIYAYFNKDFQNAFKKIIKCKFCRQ

[13] = biological target: Beta-3 adrenergic receptor (Homo sapiens) (UniProt P13945); assay: Inhibition of adrenergic beta-3 receptor (unknown origin) at 10 uM relative to control
Beta-3 adrenergic receptor (Homo sapiens), sequence (P13945 whole entry, looked up): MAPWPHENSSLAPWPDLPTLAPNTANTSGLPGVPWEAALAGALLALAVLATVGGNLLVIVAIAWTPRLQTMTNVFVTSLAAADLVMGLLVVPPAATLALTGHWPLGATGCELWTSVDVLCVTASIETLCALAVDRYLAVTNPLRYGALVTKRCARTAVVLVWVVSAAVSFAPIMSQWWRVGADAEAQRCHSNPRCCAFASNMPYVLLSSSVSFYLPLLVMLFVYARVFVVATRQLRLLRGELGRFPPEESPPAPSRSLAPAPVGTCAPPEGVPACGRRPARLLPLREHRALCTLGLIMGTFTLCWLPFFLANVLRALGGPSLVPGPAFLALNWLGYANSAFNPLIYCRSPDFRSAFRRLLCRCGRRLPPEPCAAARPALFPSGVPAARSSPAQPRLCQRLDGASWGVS

Relaxin-3 receptor 1 = biological target: T1, Relaxin-3 receptor 1 (Homo sapiens, UniProt Q9NSD7); assay: Antagonist activity at human RXFP3 expressed in CHO-K1 cells assessed as inhibition of relaxin-3 stimulated ERK1/2 phosphorylation preincubated for 15 mins followed by relaxin-3 addition for 5 mins; type: functional, cell-based
T1 sequence (Q9NSD7 whole entry): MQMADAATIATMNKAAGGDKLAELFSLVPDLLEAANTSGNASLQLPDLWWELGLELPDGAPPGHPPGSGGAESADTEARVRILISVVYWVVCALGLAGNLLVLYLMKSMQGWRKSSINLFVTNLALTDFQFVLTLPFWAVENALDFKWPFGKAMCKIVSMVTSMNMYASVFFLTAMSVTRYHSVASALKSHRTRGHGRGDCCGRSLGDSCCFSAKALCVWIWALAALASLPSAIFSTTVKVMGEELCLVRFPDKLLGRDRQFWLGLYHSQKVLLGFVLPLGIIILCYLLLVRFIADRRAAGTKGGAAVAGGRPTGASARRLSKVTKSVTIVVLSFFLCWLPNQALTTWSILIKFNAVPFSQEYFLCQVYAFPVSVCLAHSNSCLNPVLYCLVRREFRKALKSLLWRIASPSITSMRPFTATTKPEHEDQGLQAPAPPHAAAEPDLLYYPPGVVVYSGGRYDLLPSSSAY

[14] = Tmax in Wistar rat plasma at 10 mg/kg, ip measured upto 8 hrs post dose by LC-MS/MS analysis; type: ADME, organism-based; settings: in vivo
[15] = biological target: 5-hydroxytryptamine receptor 1D (Homo sapiens) (UniProt P28221); assay: Inhibition of serotonin 5-HT1D receptor (unknown origin) at 10 uM relative to control
[16] = biological target: 5-hydroxytryptamine receptor 1E (Homo sapiens) (UniProt P28566); assay: Inhibition of serotonin 5-HT1E receptor (unknown origin) at 10 uM relative to control
[17] = biological target: Alpha-2A adrenergic receptor (Homo sapiens) (UniProt P08913); assay: Inhibition of adrenergic alpha-2A receptor (unknown origin) at 10 uM relative to control
[18] = biological target: Delta-type opioid receptor (Homo sapiens) (UniProt P41143); assay: Inhibition of opioid delta receptor (unknown origin) at 10 uM relative to control
Delta-type opioid receptor (Homo sapiens), sequence (P41143 whole entry): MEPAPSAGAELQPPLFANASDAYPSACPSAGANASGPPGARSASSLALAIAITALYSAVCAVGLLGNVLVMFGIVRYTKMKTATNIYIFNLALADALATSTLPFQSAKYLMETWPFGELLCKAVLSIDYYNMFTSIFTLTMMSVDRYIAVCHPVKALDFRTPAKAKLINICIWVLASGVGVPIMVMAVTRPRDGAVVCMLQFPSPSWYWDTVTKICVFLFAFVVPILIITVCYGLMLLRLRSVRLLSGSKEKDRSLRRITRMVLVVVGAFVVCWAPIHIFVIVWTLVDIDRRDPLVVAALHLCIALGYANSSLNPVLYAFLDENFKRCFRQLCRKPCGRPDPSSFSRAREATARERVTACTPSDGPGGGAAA

Homo sapiens = species on record: Homo sapiens; assay: Inhibition of GABAA receptor (unknown origin) at 10 uM relative to control
[19] = Cmax in Wistar rat plasma at 10 mg/kg, ip measured upto 8 hrs post dose by LC-MS/MS analysis; type: ADME, organism-based; set-up: time < 8 hrs, dose 10 mg/kg, route ip; settings: in vivo
[20] = biological target: Sigma intracellular receptor 2 (Homo sapiens, UniProt Q5BJF2); assay: Inhibition of sigma-2 receptor (unknown origin) at 10 uM relative to control
Sigma intracellular receptor 2, sequence (Q5BJF2 whole entry): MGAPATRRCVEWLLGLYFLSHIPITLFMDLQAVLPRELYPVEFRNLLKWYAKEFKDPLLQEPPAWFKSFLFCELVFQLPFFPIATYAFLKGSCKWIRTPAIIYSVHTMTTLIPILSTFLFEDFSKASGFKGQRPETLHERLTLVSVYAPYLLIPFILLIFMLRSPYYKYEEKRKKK

[21] = biological target: Muscarinic acetylcholine receptor M4 (Homo sapiens) (UniProt P08173); assay: Inhibition of muscarinic M4 receptor (unknown origin) at 10 uM relative to control
Muscarinic acetylcholine receptor M4 (Homo sapiens), sequence (P08173 whole entry): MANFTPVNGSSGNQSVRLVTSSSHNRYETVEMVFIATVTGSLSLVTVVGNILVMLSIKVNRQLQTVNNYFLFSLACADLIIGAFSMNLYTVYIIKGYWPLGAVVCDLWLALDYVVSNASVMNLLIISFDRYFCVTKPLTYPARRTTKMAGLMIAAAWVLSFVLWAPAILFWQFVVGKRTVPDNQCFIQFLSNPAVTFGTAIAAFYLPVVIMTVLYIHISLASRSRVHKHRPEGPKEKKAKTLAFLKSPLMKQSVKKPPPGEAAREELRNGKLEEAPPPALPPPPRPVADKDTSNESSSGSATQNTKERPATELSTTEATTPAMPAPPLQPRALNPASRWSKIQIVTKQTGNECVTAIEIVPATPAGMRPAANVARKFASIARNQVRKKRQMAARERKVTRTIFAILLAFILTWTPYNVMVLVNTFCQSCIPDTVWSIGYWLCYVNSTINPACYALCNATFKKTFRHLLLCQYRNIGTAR

[22] = Plasma protein binding in Wister rat at 1 uM measured after 6 hrs by LC-MS/MS analysis; type: ADME, cell-free
[23] = AUCinfinity in Wistar rat brain at 10 mg/kg, ip measured upto 8 hrs post dose by LC-MS/MS analysis; type: ADME, organism-based; set-up: dose 10 mg/kg, time < 8 hrs, route ip
[24] = AUCinfinity in Wistar rat plasma at 10 mg/kg, ip measured upto 8 hrs post dose by LC-MS/MS analysis; type: ADME, organism-based; set-up: dose 10 mg/kg, time < 8 hrs, route ip; settings: in vivo
[25] = biological target: Kappa-type opioid receptor (Homo sapiens) (UniProt P41145); assay: Inhibition of opioid kappa receptor (unknown origin) at 10 uM relative to control
[26] = Half life in Wistar rat plasma at 10 mg/kg, ip measured upto 8 hrs post dose by LC-MS/MS analysis; type: ADME, organism-based; settings: in vivo
[27] = biological target: Sodium-dependent noradrenaline transporter (Homo sapiens) (UniProt P23975); assay: Inhibition of NET receptor (unknown origin) at 10 uM relative to control
[28] = biological target: D(4) dopamine receptor (Homo sapiens) (UniProt P21917); assay: Inhibition of dopamine D4 receptor (unknown origin) at 10 uM relative to control
[29] = biological target: Muscarinic acetylcholine receptor M1 (Homo sapiens) (UniProt P11229); assay: Inhibition of muscarinic M1 receptor (unknown origin) at 10 uM relative to control
Muscarinic acetylcholine receptor M1 (Homo sapiens), sequence (P11229 whole entry): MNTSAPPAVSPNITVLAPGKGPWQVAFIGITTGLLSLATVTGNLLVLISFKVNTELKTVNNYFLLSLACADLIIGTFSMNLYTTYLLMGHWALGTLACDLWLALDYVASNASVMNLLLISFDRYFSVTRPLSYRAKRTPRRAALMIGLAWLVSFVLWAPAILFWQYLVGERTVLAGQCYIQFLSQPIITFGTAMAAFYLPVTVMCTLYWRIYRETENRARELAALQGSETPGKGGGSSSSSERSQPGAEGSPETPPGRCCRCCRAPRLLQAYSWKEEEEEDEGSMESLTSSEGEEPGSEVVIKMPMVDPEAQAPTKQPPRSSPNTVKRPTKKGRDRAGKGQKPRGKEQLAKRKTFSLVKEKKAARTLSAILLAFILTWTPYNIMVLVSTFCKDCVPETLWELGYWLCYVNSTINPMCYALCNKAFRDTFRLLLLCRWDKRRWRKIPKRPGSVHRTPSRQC

Sigma non-opioid intracellular receptor 1 (Homo sapiens), sequence (Q99720 whole entry): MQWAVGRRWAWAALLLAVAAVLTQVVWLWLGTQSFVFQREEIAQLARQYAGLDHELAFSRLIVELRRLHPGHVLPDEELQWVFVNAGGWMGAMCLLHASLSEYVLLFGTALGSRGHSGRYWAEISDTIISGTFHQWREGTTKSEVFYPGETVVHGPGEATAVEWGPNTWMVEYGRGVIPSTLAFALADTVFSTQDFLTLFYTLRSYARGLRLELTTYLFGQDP

In the case of `O=C(Nc1ccc(-c2nc(-c3ccc(Cl)cc3)no2)cc1)C1CC(=O)N(Cc2ccco2)C1` (stereo unspecified), the inhibition [1] was < 50%, the inhibition [2] was < 50% and the Kinetic_solubility [3] was < 1 µM. For the same compound, the inhibition [4] was < 50%, the inhibition [5] was < 50% and the inhibition [6] was < 50%. For the same compound, the inhibition [7] was < 50%, the Ratio [8] was 1 and the inhibition [9] was < 50%. For the same compound, the inhibition [10] was < 50%, the inhibition [11] was < 50% and the inhibition [12] was < 50%. For the same compound, the inhibition [13] was < 50%, the pIC50 (Relaxin-3 receptor 1) was 4.86 and the Tmax [14] was 0.5 h. The inhibition [15] was < 50%, the inhibition [16] was < 50% and the inhibition [17] was < 50%. The inhibition [18] was < 50%, the inhibition (Homo sapiens) was < 50% and the Cmax [19] was 1401 ng/mL. The inhibition [20] was 95%, the inhibition [21] was < 50% and the PPB [22] was 99.8%. The AUC(0-inf) [23] was 12.5 ng·h/mL, the AUC [24] was 5352 ng·h/mL and the inhibition [25] was < 50%. The t1/2 [26] was 1.9 h, the inhibition [27] was < 50% and the inhibition [28] was < 50%. For the same compound, the inhibition [29] was < 50%.
